What all share (format): biochemical
Test [1] addresses T1, Abl kinase (Homo sapiens, UniProt P00519).
T1 sequence (P00519 229-512): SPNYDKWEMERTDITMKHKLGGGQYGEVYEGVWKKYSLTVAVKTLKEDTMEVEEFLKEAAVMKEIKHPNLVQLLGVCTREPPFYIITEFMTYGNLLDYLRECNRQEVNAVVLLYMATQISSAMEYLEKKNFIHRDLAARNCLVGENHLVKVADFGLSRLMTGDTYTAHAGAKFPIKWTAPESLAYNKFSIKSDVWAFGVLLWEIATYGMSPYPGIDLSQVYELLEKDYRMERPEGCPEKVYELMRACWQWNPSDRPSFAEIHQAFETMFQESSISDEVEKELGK
Briefly: Abl kinase assay A2 (as A1, 1.1 nM enzyme, 2 h pre-incubation, 0.5 mM ATP). The protocol:
(§1) IC50 values were calculated from a series of percent inhibition values determined at a range of inhibitor concentrations using software routines as implemented in the GraphPad Prism software package.

Test [2] addresses T1, Abl kinase. Kind of test: Abl kinase assay A1 (pyruvate kinase/lactate dehydrogenase coupled, spectrophotometric). The note with it: Method A1; read-out: Abl Data (IC50). The protocol:
as §1

In the next test the target is KDR kinase (Homo sapiens, UniProt P35968, DEL940-989/E990V). Kind of test: KDR kinase assay K2 (as K1, 2.1 nM enzyme, 2 h pre-incubation, 1.0 mM ATP). The conditions noted are these: Method K2; read-out: KDR Data (IC50). The protocol: as §1
Chain of KDR kinase (P35968 with tags, fused parts or gaps DEL940-989/E990V): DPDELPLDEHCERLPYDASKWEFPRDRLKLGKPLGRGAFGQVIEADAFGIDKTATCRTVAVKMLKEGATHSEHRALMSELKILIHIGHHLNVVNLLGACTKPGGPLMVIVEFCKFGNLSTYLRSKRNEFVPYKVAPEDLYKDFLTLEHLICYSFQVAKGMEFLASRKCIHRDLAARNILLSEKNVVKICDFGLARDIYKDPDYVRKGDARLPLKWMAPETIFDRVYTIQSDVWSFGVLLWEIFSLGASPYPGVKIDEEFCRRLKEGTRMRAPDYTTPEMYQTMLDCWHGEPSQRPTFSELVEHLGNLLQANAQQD
Test [3] has as its target phosphorylated p-38-alpha kinase (Homo sapiens, UniProt Q16539). Kind of test: P-38 alpha kinase assay P1 (coupled spectrophotometric, 2 h pre-incubation). The note with it: method P1 (2 h pre-incubation); read-out: P-38 Data.
Another test deals with B-Raf(V599E) kinase (Homo sapiens, UniProt P15056, V600E). Briefly: B-Raf(V599E) kinase assay B1 (construct 1, MEK1 substrate, coupled spectrophotometric). The protocol: The test compounds were incubated with the reaction mixtureat 30° C. for 2 h. […] The reaction rate was calculated using the […] time frame. […] IC50 values were calculated from a series of percent inhibition values determined at a range of inhibitor concentrations using software routines as implemented in the GraphPad Prism software package.
Chain of B-Raf(V599E) kinase (P15056 with tags, fused parts or gaps V600E): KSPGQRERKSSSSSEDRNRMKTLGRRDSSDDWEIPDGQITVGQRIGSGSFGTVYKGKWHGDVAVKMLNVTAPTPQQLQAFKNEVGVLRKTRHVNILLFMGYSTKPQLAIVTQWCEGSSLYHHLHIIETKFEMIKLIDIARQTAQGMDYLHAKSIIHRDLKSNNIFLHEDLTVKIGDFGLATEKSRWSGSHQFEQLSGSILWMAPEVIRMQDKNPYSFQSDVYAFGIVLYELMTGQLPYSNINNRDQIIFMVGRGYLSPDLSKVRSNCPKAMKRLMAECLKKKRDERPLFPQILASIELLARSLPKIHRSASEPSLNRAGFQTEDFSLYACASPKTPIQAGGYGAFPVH

The mark [4] stands for this setting: Method A2, read-out: Abl Data (IC50).

The structures appear in SMILES notation. Counter-ions that a name gives are not always drawn.

Chain of phosphorylated p-38-alpha kinase (Q16539 1-360 isoform Q16539-2): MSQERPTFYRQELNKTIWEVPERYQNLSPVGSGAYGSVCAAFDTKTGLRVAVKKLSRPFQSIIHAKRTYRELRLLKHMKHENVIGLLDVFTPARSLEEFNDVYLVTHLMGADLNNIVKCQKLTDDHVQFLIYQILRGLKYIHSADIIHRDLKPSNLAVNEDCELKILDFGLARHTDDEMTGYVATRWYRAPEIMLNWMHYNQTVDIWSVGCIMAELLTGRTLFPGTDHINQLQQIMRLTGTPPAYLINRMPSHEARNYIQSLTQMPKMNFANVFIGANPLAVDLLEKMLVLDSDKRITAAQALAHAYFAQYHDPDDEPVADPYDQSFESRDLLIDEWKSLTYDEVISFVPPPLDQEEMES

On to `CC(C)(C)c1cc(NC(=O)Nc2cccc(Oc3cccnc3)c2)n(-c2ccc3c(c2)CCNC3C(=O)NCC(O)CO)n1` (centres unmarked) [Example 184, 1-(1-(1-((2,3-dihydroxypropyl)carbamoyl)-1,2,3,4-tetrahydroisoquinolin-6-yl)-3-t-butyl-1H-pyrazol-5-yl)-3-(3-(pyridin-3-yloxy)phenyl)urea], for which the IC50 on Abl kinase [1] (setting [4]) was 10 nM.

On to `CC(C)(C)c1cc(NC(=O)Nc2ccc(-c3cccc4c3CNC4=O)cc2)n(-c2ccc3c(c2)CCN3)n1` [Example 191, 1-(3-t-butyl-1-(indolin-5-yl)-1H-pyrazol-5-yl)-3-(4-(1-oxoisoindolin-4-yl)phenyl)urea], for which the IC50 on Abl kinase [1] (setting [4]) was 21 nM.

Take `COc1cccc(-n2nc(C(C)(C)C)cc2NC(=O)Nc2ccc(C#N)cc2)c1` [Example 16, 1-(3-t-butyl-1-(3-methoxyphenyl)-1H-pyrazol-5-yl)-3-(4-cyanophenyl)urea]: the IC50 on Abl kinase [2] amounted to 5900 nM; on KDR kinase, 3400 nM; in test [3], 1300 nM.

With `O=C1CCc2cc(-n3nc(C4CCCC4)cc3NC(=O)Nc3cccc(Oc4cccnc4)c3)ccc2N1` [Example 133, 1-(3-cyclopentyl-1-(2-oxo-1,2,3,4-tetrahydroquinolin-6-yl)-1H-pyrazol-5-yl)-3-(3-(pyridin-3-yloxy)phenyl)urea], the IC50 at Abl kinase [1] (setting [4]) was 48 nM.

For `CC(C)(C)c1cc(NC(=O)Nc2cccc(-c3ccc(N)nc3)c2)n(-c2ccc3c(c2)CCC(=O)N3)n1` [Example 160, 1-(3-(6-aminopyridin-3-yl)phenyl)-3-(3-t-butyl-1-(2-oxo-1,2,3,4-tetrahydroquinolin-6-yl)-1H-pyrazol-5-yl)urea], on Abl kinase [1] (setting [4]), the IC50 was determined as 14900 nM.

For `O=C(Nc1cccc(Oc2cccnc2)c1)Nc1cc(C2CCCC2)nn1-c1ccc2[nH]c(=O)ccc2c1` [Example 164, 1-(3-cyclopentyl-1-(2-oxo-1,2-dihydroquinolin-6-yl)-1H-pyrazol-5-yl)-3-(3-(pyridin-3-yloxy)phenyl)urea], on Abl kinase [1] (setting [4]), the IC50 was 33 nM.

The compound `CC(C)(C)c1cc(NC(=O)Nc2cc(F)cc(C#N)c2)n(-c2ccc3c(c2)CCNC3)n1` [Example 152, 1-(3-t-butyl-1-(1,2,3,4-tetrahydroisoquinolin-6-yl)-1H-pyrazol-5-yl)-3-(3-cyano-5-fluorophenyl)urea hydrochloride] registered an IC50 against Abl kinase [1] of 570 nM.

In the case of `CC(C)(C)c1cc(NC(=O)Nc2cccc(Cl)c2Cl)n(-c2ccc3c(=O)[nH]cnc3c2)n1` [Example 194, 1-(3-t-butyl-1-(4-oxo-3,4-dihydroquinazolin-7-yl)-1H-pyrazol-5-yl)-3-(2,3-dichlorophenyl)urea], the IC50 on Abl kinase [1] (setting [4]) amounted to 540 nM.

`CC(C)(C)c1cc(NC(=O)Nc2ccc(-c3cccc4c3CNC4=O)cc2)n(-c2ccc3c(c2)CC(C(N)=O)NC3)n1` (centres unmarked) [Example 183, 1-(3-t-butyl-1-(3-carbamoyl-1,2,3,4-tetrahydroisoquinolin-6-yl)-1H-pyrazol-5-yl)-3-(4-(1-oxoisoindolin-4-yl)phenyl)urea]: the IC50 on Abl kinase [1] (setting [4]) was determined as 20 nM.

In the case of `CC(C)(C)c1cc(NC(=O)Nc2ccc(-c3cccc4c3CNC4=O)cc2)n(-c2ccc3c(c2)CC(C(=O)O)NC3)n1` (centres unmarked) [Example 181, 6-(3-t-butyl-5-(3-(4-(1-oxoisoindolin-4-yl)phenyl)ureido)-1H-pyrazol-1-yl)-1,2,3,4-tetrahydroisoquinoline-3-carboxylic acid], the IC50 at Abl kinase [1] (setting [4]) amounted to 6.6 nM.

Take `CC(C)(C)c1cc(NC(=O)Nc2cccc(Cl)c2Cl)n(-c2ccc3ncccc3c2)n1` [Example 52, 1-[3-t-butyl-1-(quinolin-6-yl)-1H-pyrazol-5-yl]-3-(2,3-dichlorophenyl)urea]: the IC50 at Abl kinase [2] was found to be 140 nM; on KDR kinase, 63 nM; at B-Raf(V599E) kinase, 1.8 nM; in test [3], 23 nM.

In the case of `CC(C)(C)c1cc(NC(=O)Nc2cccc(C#N)c2)n(-c2ccc3c(c2)CCNC3)n1` [Example 139, 1-(3-t-butyl-1-(1,2,3,4-tetrahydro-isoquinolin-6-yl)-1H-pyrazol-5-yl)-3-(3-cyanophenyl)urea], on Abl kinase [1] (setting [4]), the IC50 was 140 nM.

As for `CC(C)(C)c1cc(NC(=O)Nc2ccc(-c3cccc4c3CNC4=O)cc2)n(-c2ccc3c(c2)CCN3S(C)(=O)=O)n1` [Example 192, 1-(3-t-butyl-1-(1-(methylsulfonyl)indolin-5-yl)-1H-pyrazol-5-yl)-3-(4-(1-oxoisoindolin-4-yl)phenyl)urea], the IC50 on Abl kinase [1] (setting [4]) is 27 nM.

Turning to `Cn1ccc2cc(-n3nc(C(C)(C)C)cc3NC(=O)Nc3cccc(Cl)c3Cl)ccc21` [Example 117, 1-(3-t-butyl-1-(1-methyl-1H-indol-5-yl)-1H-pyrazol-5-yl)-3-(2,3-dichlorophenyl)urea], the IC50 at Abl kinase [2] was 230 nM; on KDR kinase it was 58 nM; against B-Raf(V599E) kinase it was 3.2 nM; in test [3], 59 nM.

For the compound `CC(C)(C)c1cc(NC(=O)Nc2cc(F)c(F)cc2F)n(-c2ccc3ncccc3c2)n1` [Example 53, 1-(3-t-butyl-1-(quinolin-6-yl)-1H-pyrazol-5-yl)-3-(2,4,5-trifluorophenyl)urea], the figures for the IC50 at Abl kinase [2], on KDR kinase and on B-Raf(V599E) kinase were 360 nM, 490 nM and 4.5 nM, respectively.

For the compound `CCOC(=O)Cc1cccc(-n2nc(C(C)(C)C)cc2NC(=O)Nc2cccc(Cl)c2Cl)c1` [Example 23, ethyl 2-(3-(3-t-butyl-5-(3-(2,3-dichlorophenyl)ureido)-1H-pyrazol-1-yl)phenyl)acetate], the IC50 on Abl kinase [2] was 3800 nM; at KDR kinase, 1000 nM; at B-Raf(V599E) kinase, 4.8 nM; in test [3], 21 nM.

For the compound `CC(C)(C)c1cc(NC(=O)Nc2cccc(Cl)c2Cl)n(-c2ccc3c(c2)CCN3S(C)(=O)=O)n1` [Example 108, 1-(3-t-butyl-1-(1-(methylsulfonyl)indolin-5-yl)-1H-pyrazol-5-yl)-3-(2,3-dichlorophenyl)urea], the IC50 at Abl kinase [2] is 250 nM; on KDR kinase it was 13 nM; on B-Raf(V599E) kinase it was 1.5 nM; in test [3], 9 nM.

As for `CC(C)(C)c1cc(NC(=O)Nc2cc(F)c(F)cc2F)n(-c2ccc3c(c2)CCN3S(C)(=O)=O)n1` [Example 110, 1-(3-t-butyl-1-(1-(methylsulfonyl)indolin-5-yl)-1H-pyrazol-5-yl)-3-(2,4,5-tri-fluorophenyl)urea], the values for the IC50 on Abl kinase [2], at KDR kinase and against B-Raf(V599E) kinase were 360 nM, 140 nM and 3.4 nM, respectively.

For `CC(C)(C)c1cc(NC(=O)Nc2ccc(Cl)cc2)n(-c2cccc(C#N)c2)n1` [Example 7, 1-(3-t-butyl-1-(3-cyanophenyl)-1H-pyrazol-5-yl)-3-(4-chlorophenyl)urea], the IC50 on Abl kinase [2] was 5200 nM; on KDR kinase it was 870 nM; against B-Raf(V599E) kinase, 8.2 nM.

For `CC(C)(C)c1cc(NC(=O)Nc2cc(F)cc(F)c2F)n(-c2ccc3ncccc3c2)n1` [Example 54, 1-(3-t-butyl-1-(quinolin-6-yl)-1H-pyrazol-5-yl)-3-(2,3,5-trifluorophenyl)urea], the IC50 is 120 nM on Abl kinase [2], 240 nM on KDR kinase and 4.8 nM against B-Raf(V599E) kinase.

In the case of `Cc1ccc(NC(=O)Nc2cc(C(C)(C)C)nn2-c2ccc3nc(N4CCNCC4)ccc3c2)cc1Nc1nccc(-c2cccnc2)n1` [Example 171, 1-(3-t-butyl-1-(2-(piperazin-1-yl)quinolin-6-yl)-1H-pyrazol-5-yl)-3-(4-methyl-3-(4-(pyridin-3-yl)pyrimidin-2-ylamino)phenyl)urea], the IC50 on Abl kinase [1] (setting [4]) came to 4 nM.

For the compound `Cc1ccc(NC(=O)Nc2cc(C(C)(C)C)nn2-c2cccc(CC(=O)NCC(O)CO)c2)cc1Nc1ncccn1` (centres unmarked) [Example 38, 1-(3-t-butyl-1-(3-(2-(2,3-dihydroxypropylamino)-2-oxoethyl)phenyl)-1H-pyrazol-5-yl)-3-(4-methyl-3-(pyrimidin-2-ylamino)phenyl)urea], the IC50 on Abl kinase [1] (setting [4]) is 1400 nM.

Take `CC(C)(C)c1cc(NC(=O)Nc2cccc(Oc3cccnc3)c2)n(-c2ccc3c(c2)CC(C(=O)NCC(O)CO)NC3)n1` (centres unmarked) [Example 182, 1-(1-(3-((2,3-dihydroxypropyl)carbamoyl)-1,2,3,4-tetrahydroisoquinolin-6-yl)-3-t-butyl-1H-pyrazol-5-yl)-3-(3-(pyridin-3-yloxy)phenyl)urea]: the IC50 on Abl kinase [1] (setting [4]) was determined as 3.4 nM.

With `CC(C)(C)c1cc(NC(=O)Nc2cccc(Cl)c2Cl)n(-c2ccc3c(c2)CC(C(N)=O)NC3)n1` (centres unmarked) [Example 188, 1-(3-t-butyl-1-(3-carbamoyl-1,2,3,4-tetrahydroisoquinolin-6-yl)-1H-pyrazol-5-yl)-3-(2,3-dichloro-phenyl)urea], the IC50 on Abl kinase [2] worked out at 110 nM; on KDR kinase, 150 nM; against B-Raf(V599E) kinase, 5.8 nM; in test [3] it was 17 nM.

The term inhibition denotes the change of the read-out against control, counted positive when it falls. Consider `CC(C)(C)c1cc(NC(=O)Nc2cccc(-c3cccnc3)c2)n(-c2ccc3c(c2)CCC(=O)N3)n1` [Example 161, 1-(3-t-butyl-1-(2-oxo-1,2,3,4-tetrahydroquinolin-6-yl)-1H-pyrazol-5-yl)-3-(3-(pyridin-3-yl)phenyl)urea], for which the inhibition at 1 µM on Abl kinase [1] (@ 1 μM, Method A2, read-out: Abl Data (percent inhibition)) worked out at 3%.
